Test: collision cross section (DTIM-MS, N2); higher = larger ion
Method: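 Collision cross section (CCS) of drug and natural-product chemical standards (validation set 2, measured in this paper). Three independent measurements were made across 2 months; the value taken is their mean (avg_ccs), for the ion adduct given.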

Structure (SMILES) | collision cross section (ion adduct: [M-H]-) | collision cross section (ion adduct: [M+H]+)
COc1cc(C(=O)O)cc(OC)c1O [Syringic acid] | 148.59 Å² | 
C=CC[C@@H]1/C=C(/C)C[C@H](C)C[C@H](OC)[C@H]2O[C@@](O)(C(=O)C(=O)N3CCCC[C@H]3C(=O)O[C@H](/C(C)=C/[C@@H]3CC[C@@H](O)[C@H](OC)C3)[C@H](C)[C@@H](O)CC1=O)[C@H](C)C[C@@H]2OC [Tacrolimus] | 281.46 Å² | 
O=c1[nH]c(=O)n(C2CCCO2)cc1F (centres undefined) [Tegafur] | 142.34 Å² | 
COc1cc(CCC(=O)CC(=O)CCc2ccc(O)c(OC)c2)ccc1O [Tetrahydrocurcumin] | 185.55 Å² | 
Cn1c(=O)c2c(ncn2CC(=O)O)n(C)c1=O [Theophylline-7-acetic acid] |  | 152.03 Å²
Cn1c(=O)c2[nH]cnc2n(C)c1=O [Theophylline] |  | 137.12 Å²
Nc1nc(=S)c2[nH]cnc2[nH]1 [Thioguanine] | 128.86 Å² | 132.57 Å²
Cn1cncc1[C@@](N)(c1ccc(Cl)cc1)c1ccc2c(c1)c(-c1cccc(Cl)c1)cc(=O)n2C [Tipifarnib] | 215.68 Å² | 215.34 Å²
NC[C@H]1O[C@H](O[C@H]2[C@H](O)[C@@H](O[C@H]3O[C@H](CO)[C@@H](O)[C@H](N)[C@H]3O)[C@H](N)C[C@@H]2N)[C@H](N)C[C@@H]1O [Tobramycin] | 203.66 Å² | 202.65 Å²
O=C(Nc1ccc(Cl)cc1)Nc1ccc(Cl)c(Cl)c1 [Triclocarban] | 178.67 Å² | 173.83 Å²
O=P(OCCCl)(OCCCl)OCCCl [Tris(2-chloroethyl) phosphate] |  | 151.08 Å²
CCC(=O)c1ccc(O)cc1 [Vanatone] | 131.83 Å² | 130 Å²
C[C@H]1O[C@@H](O[C@@H]2[C@@H](O)[C@H](O)[C@@H](CO)O[C@H]2c2c(O)cc(O)c3c(=O)cc(-c4ccc(O)cc4)oc23)[C@@H](O)[C@@H](O)[C@@H]1O [Vitexin-2''-O-rhamnoside] | 227.62 Å² | 221.54 Å²
COc1cc(O)c2c(c1)oc(=O)c1c3cc(O)c(O)cc3oc21 [Wedelolactone] | 168.67 Å² | 167.93 Å²
COc1cc(CCC(C)=O)ccc1O [Zingerone] | 146.57 Å² | 
CC(=O)/C=C/c1ccccc1 [trans-4-phenylbut-3-en-2-one] |  | 131.24 Å²
COc1ccc(C=Cc2cc(OC)cc(=O)o2)cc1 [yangonin] |  | 163.31 Å²

— the supplement of paper PMC7455731
